“Also recorded” adds a separate entry of the source.
What was measured:
peripheral serotonin [1] = assay: Peripheral serotonin levels in wild-type mice (Example 11); format: in vivo; conditions: 5 mice per compound
Method: (§1) Serotonin serum levels were quantified using immunoassay kits from Fitzgerald (Serotonin) and serotonin levels in the different regions of the brain were quantified by HPLC method as described previously (Mann et al., 1992, Arch. Gen. Psychiatry 49:442-446).
The following three compounds were tested for their ability to effect peripheral serotonin levels in wild-type mice:
Also tested as a negative control was vehicle alone. Each compound as well as vehicle was administered to 5 mice and the resulting peripheral serotonin levels were as follows: […]

rb 5-HT1B receptors = rb 5-HT1B receptors (Oryctolagus cuniculus, UniProt P49144); conditions: cited from earlier work
peripheral serotonin [2] = assay: Effect of CBMIDA and pCPA on peripheral (serum) serotonin in mice (Example 1); format: in vivo; conditions: for reduction of peripheral (serum) serotonin: 250 mg/kg orally
Method: One month old C57B1/6 inbred male mice, weighing 15-16 g were used in the experiments. Animals were housed under 12 h light/12 h dark conditions in a room with controlled temperature (22° C.) and humidity (60%). Mice had ad libitum access to food and water, and were used after a minimum of 4 days of acclimatization to the housing conditions. All experiments were conducted following Columbia University Guidelines for the Animal Use and Care of laboratory mice.
(§2) Before the experiments, animals were separated into individual cages one day prior to the experiment. Compounds were fed orally (gavage) to the mouse, calculated according to the weight of the mouse, twice a day at 1700 h and at 1100 h. […] This route created two potential barriers for the compound to reach the brain. […] Control animals received the same volume of vehicle. Blood was collected through heart puncture on isofluorane-anaesthesized animals and allowed to clot for 5 minutes on ice. The serum was separated, snap chilled in liquid nitrogen and frozen at −80° C. till analyzed. Brainstems from all the animals were collected and processed for brain serotonin measurement through HPLC.
The Serotonin ELISA kit obtained from the Fitzgerald company was used to measure derivatized serotonin from serum. Derivatization is part of the sample preparation. Serotonin present in the serum was first quantitatively acylated into N-Acylserotonin using the acylation reagent. The principle of the assay is based on competitive ELISA, wherein serotonin that is bound to the solid phase of the plate and the N-acylserotonin compete for the fixed number of antiserum binding sites. When the reaction is in equilibrium, free antigen and free antigen-antiserum complexes are removed by washing.
The antibody bound to the solid phase serotonin is then detected using antirabbit/peroxidase. The substrate TMB/Peroxidase reaction is read at 450 nm. The amount of antibody bound to the solid phase serotonin is inversely proportional to the concentration of serotonin in the sample.
Catechol-3,6-bis methyleneiminodiacetic acid (CBMIDA) (basic structure is an EDTA-like compound and the catechol ring is at the centre) synthesized at the Columbia University Chemistry division, and para-chlorophenylalanine (pCPA) obtained from Sigma Aldrich Corp. were used. Each compound was dissolved with twice molar solution of NaHCO3 in water and given to mouse orally at 250 and 500 mg/kg/dose.

brain serotonin = assay: Brain serotonin / blood brain barrier after oral pCPA in mice; format: in vivo; conditions: 250 mg/kg orally
Method: as §2

Lrp5−/− mice = assay: pCPA treatment of Lrp5−/− and WT mice; format: in vivo
Method: Consistent with the conclusion that the increase in serum serotonin level is responsible fully or partly for the bone phenotype of the Lrp5−/− mice is the discovery that pCPA, a serotonin synthesis inhibitor (Eldridge et al., 1981, Ann. Rev. Physiol. 43:121-135), prevented the appearance of the Lrp5−/− bone phenotype by decreasing serotonin production. WT and Lrp5−/− mice were treated with 300 mg/kg pCPA intraperitoneally three times per week, from 3 weeks to 12 weeks of age (FIG. 7A) and the changes in serum serotonin levels, TPH1 expression in gut and TPH2 expression in brain stem were analyzed. Bone histomorphometry was also performed. […] This rescue of the Lrp5−/− phenotype was achieved by normalization of the gut TPH1 mRNA and of serum serotonin levels (FIGS. 7C and 7D).
Generation of Lrp5−/− (Kato et al., 2002, J. Cell Biol. 157:303-314) β-cateninfloxed/floxed (Glass et al., 2005, Dev. Cell 8:751-764), α1(I)collagen-cre transgenic (Dacquin et al., 2002, Dev. Dyn. 224:245-251) and Htt−/− (Ansorge et al., 2008, J. Neurosci. 28:199-207) mice were as described previously. Lrp5+/−;Htt+/− double heterozygous mice were generated by crossing Lrp5+/− and Htt+/− mice. Three week-old Wt or Lrp5−/− mice were administered pCPA on alternate days for 9 weeks by i.p. All animal protocols were approved by the Animal Care Committees of Columbia University.
Static histomorphometry measurements were performed as previously described in accordance with standard nomenclature, using the Osteomeasure Analysis System (Osteometrics, Inc) (Ducy et al., 2000, Cell 100:197-207). Four to 9 animals were assigned per group.
as §1

CREB = CREB phosphorylation (Western blot) and CREB binding to Cyclin D1 promoter (ChIP) in primary osteoblasts; format: cell-based, mouse
Method: (§3) Osteoblasts were treated in serum-free medium with vehicle or Serotonin (50 to 100 μM, Sigma) for 24 hr. Total RNA were extracted with Trizol (Invitrogen). cDNA were generated using the ABI Reverse transcriptase system and random hexanucleotide primers. Real-time PCR was performed using superarray primers on a Stratagene real time PCR cycler and Actin expression was used as endogenous control. Chromatin immunoprecipitation assays (ChIP) were performed by standard procedures using primary osteoblasts. Microarray analysis was performed as described previously (Glass et al., 2005, Dev. Cell 8:751-764).
Osteoblasts were treated in serum-free medium with vehicle or Serotonin (50 to 100 μM, Sigma) for 24 hr. Lysates from primary osteoblasts or crushed frozen bones were prepared in RIPA buffer in the presence of protease and phosphatase inhibitors. Twenty to 60 μg of proteins were separated by SDS-PAGE in reducing conditions and transferred on nitrocellulose membrane using standard protocols. Membranes were incubated with primary antibodies including total or anti-Phospho CREB (Cell Signaling Technology).

primary osteoblasts = assay: Real-time PCR of gene expression in primary osteoblasts treated with serotonin; format: cell-based, mouse; conditions: serotonin 50 to 100 μM, 24 hr
Method: Calvaria osteoblasts were extracted by triple collagenase/trypsine digestion from 4 day-old CD1 pups and differentiated with ascorbic acid as previously described (Duey et al., 2000, Cell 100:197-207).
as §3

ovariectomized rats = assay: Curative regimen in ovariectomized rats (histomorphometry, μCT, biomechanical testing); format: in vivo; conditions: OVX rats
Method: Virgin female Sprague-Dawley rats (National Institute of Nutrition, Hyderabad, India) were obtained at 3 months of age and allowed to acclimate to the facility for 1 week before study initiation and surgical procedures. They were housed under a 12 hour:12 hour light:dark cycle and provided throughout the study with water and PMI (Purina Mills, Incorporated) Certified Rodent Laboratory Chow. Rats were subjected to either bilateral ovariectomy or a sham operation under isoflurane anesthesia. […] The rats were divided into two groups of sham-operated and ovariectomized animals and left untreated for 3 weeks to allow bone loss to occur. One group of sham and one group of ovariectomized rats (n=10/group) were killed as baseline controls to determine bone loss before the start of LP-533,401 or PTH administration. The remaining animals (n=5-10/group) received vehicle or LP-533,401 (250 mg/kg/day) by gavage, or recombinant human PTH (80 ug/kg) by daily subcutaneous (s.c.) injection for 4 weeks. The 80 ug/kg dose of PTH was selected as being optimal for reversal of ovariectomy-induced bone loss in rats based on previous studies, while the dose of LP-533,401 was selected based on the effective dose for bone loss-reversal observed in mice experiments. To label bone-forming surfaces, animals were injected s.c. with calcein (8 mg/kg) at 10 and 3 days before death. Animals were killed by an overdose of Isofluorane anesthesia. The right tibia and lumbar vertebra 2 (L2) were collected, cleaned of excess soft tissue, fixed overnight in 10% formalin and processed for μCT or histomorphometric analysis. The right femur and L3 were cleaned of excess tissue and stored at −20° C. prior to biomechanical testing.
Bone histomorphometry was performed as previously described (Duey et al., 2000, Cell 100:197-207; Takeda et al., 2002, Cell 111:305-317; Parfitt et al., 1987, J. Bone Miner. Res. 2:595-610). Briefly, lumbar vertebrae were dissected, fixed for 24 hr in 10% formalin, dehydrated in graded ethanol series, and embedded in methyl methacrylate resin according to standard protocols (Parfitt et al., 1987, J. Bone Miner. Res. 2:595-610). Von Kossa/Von Gieson staining was performed using 7 μm sections for bone volume over tissue volume (BV/TV) measurement. Bone formation rate (BFR) was analyzed by the calcein double-labeling method (Ducy et al., 2000, Cell 100:197-207). Calcein (Sigma Chemical Co., St. Louis, Mo.) was dissolved in calcein buffer (0.15 M NaCl, 2% NaHCO3) and injected twice at 0.125 mg/g body weight on day 1 and 4, and then mice were killed on day 6. Unstained 4 μm sections were used for bone formation rate (BFR) measurements. For the analysis of parameters of osteoblasts and osteoclasts, 4 μm sections were stained with toluidine blue and tartrate-resistant acid phosphatase (TRAP), respectively (2). Histomorphometric analyses were performed using the Osteomeasure Analysis System (Osteometrics, Atlanta, Ga.).
Trabecular bone architecture of proximal tibia was assessed using a micro computed tomography (μCT) system (VivaCT 40, SCANCO Medical AG, Bassersdorf, Switzerland). Tibia bone specimen was stabilized with gauze in a 2 ml centrifuge tube filled with 70% ethanol and fastened in the specimen holder of the μCT scanner. One hundred μCT slices, corresponding to a 1.05 mm region distal from the growth plate, were acquired at an isotropic spatial resolution of 10.5 μm. A global thresholding technique was applied to binarize gray-scale μCT images where the minimum between the bone and bone marrow peaks in the voxel gray value histogram was chosen as the threshold value. The trabecular bone compartment was segmented by a semi-automatic contouring method and subjected to a model-independent morphological analysis (Hildebrand et al., 1999, J. Bone Miner. Res. 14:1167-1174) by the standard software provided by the manufacture of the μCT scanner. […]

[3] = 300 mg/kg i.p. three times per week, 3 to 12 weeks of age
[4] = LP-533,401 250 mg/kg/day, PTH 80 μg/kg/day

Chain of rb 5-HT1B receptors (P49144 whole entry): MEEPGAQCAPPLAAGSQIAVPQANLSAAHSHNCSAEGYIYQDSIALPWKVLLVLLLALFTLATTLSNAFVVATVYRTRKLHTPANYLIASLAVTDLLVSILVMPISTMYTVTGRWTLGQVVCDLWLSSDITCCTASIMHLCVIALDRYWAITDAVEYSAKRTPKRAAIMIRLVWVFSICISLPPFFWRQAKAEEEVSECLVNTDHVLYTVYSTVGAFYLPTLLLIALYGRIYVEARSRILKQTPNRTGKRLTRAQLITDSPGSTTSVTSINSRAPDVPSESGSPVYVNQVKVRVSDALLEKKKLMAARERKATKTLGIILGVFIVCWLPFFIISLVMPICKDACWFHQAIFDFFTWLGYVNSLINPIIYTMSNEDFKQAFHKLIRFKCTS

In the case of COC(=O)C(=O)Nc1ccc(-c2cc(OC(c3ccc(-c4cccc(F)c4)cc3)C(F)(F)F)nc(N)n2)cc1 (stereo not shown) [Methyl 2-(4-(2-amino-6-(2,2,2-trifluoro-1-(3′-fluorobiphenyl-4-yl)ethoxy)pyrimidin-4-yl)phenylamino)-2-oxoacetate], the “Peripheral serotonin (ng/ml) (mean ± SEM)” value (peripheral serotonin [1]) is reported as 23.76 ± 8.25 ng/mL.

For O=C(c1ccc(F)cc1)C1CCN(CCn2c(=O)[nH]c3ccccc3c2=O)CC1 [ketanserin], the “behaviour at rb 5-HT1B receptors” value (rb 5-HT1B receptors) is given as “as silent, competitive antagonists”.

For O=C(O)CN(CC(=O)O)Cc1ccc(CN(CC(=O)O)CC(=O)O)c(O)c1O [CBMIDA, Catechol-3,6-bis methyleneiminodiacetic acid], the “reduction of peripheral (serum) serotonin” value (peripheral serotonin [2]; 4 week old mice) was roughly 45%, the “reduction of peripheral serotonin” value (peripheral serotonin [2]; 4 week old mice, 500 mg/kg orally twice in 20 hours) was “about 80%” and the “serotonin serum levels, decrease below normal” value (peripheral serotonin [2]; mice, 500 mg/kg orally twice daily) was 80 % below normal. The peripheral serotonin (peripheral serotonin [2]; oral feeding (FIG. 11)) was “reduces”.

With NC(Cc1ccc(Cl)cc1)C(=O)O (stereo not shown) [pCPA, para-chlorophenylalanine] the “crossing of the blood brain barrier” value (brain serotonin) was “did not cross the blood brain barrier”, the “serotonin in the brain” value (brain serotonin) was “did not decrease” and the “bone abnormalities (low bone phenotype) of Lrp5−/− mice” value (Lrp5−/− mice; [3]) was “corrected”. The “bone mass in WT mice” value (Lrp5−/− mice; [3]) was “without overtly affecting”, the “gut TPH1 mRNA” value (Lrp5−/− mice; Lrp5−/− mice, 300 mg/kg i.p.) was “normalization” and the serum serotonin levels (Lrp5−/− mice; Lrp5−/− mice, 300 mg/kg i.p., 300 mg/kg) was “normalizes; also recorded: normalization”. The “Brain TPH2 mRNA levels” value (Lrp5−/− mice; treated mice, 300 mg/kg i.p.) was “not affected”, the “reduction of peripheral (serum) serotonin” value (peripheral serotonin [2]; 4 week old mice) was roughly 50% and the “serum serotonin levels, decrease below normal range” value (peripheral serotonin [2]; mice, oral, control inhibitor) was greater than 60 % below normal range.

For NCCc1c[nH]c2ccc(O)cc12 [serotonin, 5-hydroxytryptamine], the CREB phosphorylation (CREB) was “significantly decreased”, the “binding of CREB to the Cyclin D1 promoter (ChIP)” value (CREB) was “decreased” and the “expression of Cyclin D1” value (primary osteoblasts) was “decreased”. For the same molecule, the “expression of Cyclin D2” value (primary osteoblasts) was “decreased”, the “expression of Osteocalcin” value (primary osteoblasts) was “not modified” and the “expression of Runx2” value (primary osteoblasts) was “not modified”. The “expression of Type I collagen” value (primary osteoblasts) was “not modified”.

For CSc1ccc2c(c1)C(N1CCN(C)CC1)Cc1ccccc1S2 (stereo not shown) [methiothepin], the “behaviour at rb 5-HT1B receptors” value (rb 5-HT1B receptors) is given as “as silent, competitive antagonists”.

For Nc1nc(OC(c2ccc(-c3cccc(F)c3)cc2)C(F)(F)F)cc(-c2ccc(OC[C@H](N)C(=O)O)cc2)n1 (stereo partly drawn) [(2S)-2-amino-3-(4-(2-amino-6-(2,2,2-trifluoro-1-(3′-fluorobiphenyl-4-yl)ethoxy)pyrimidin-4-yl)phenoxy)propanoic acid], the “Peripheral serotonin (ng/ml) (mean ± SEM)” value (peripheral serotonin [1]) was 93.77 ± 12.15 ng/mL.

B1: PTH: recombinant human PTH, intermittent s.c. injections, standard to which bone anabolic agents are compared (protein, UniProt P01270 32-115, looked up)
Parathyroid hormone: SVSEIQLMHNLGKHLNSMERVEWLRKKLQDVHNFVALGAPLAPRDAGSQRPRKKEDNVLVESHEKSLGEADKADVNVLTKAKSQ
modifications: Parathyroid hormone
notes: recombinant human PTH, intermittent s.c. injections, standard to which bone anabolic agents are compared
For B1, the “number of osteoclasts per bone surface (OcS/BS) versus untreated ovariectomized rats” value (ovariectomized rats) was “similar”, the “decrease in cortical thickness at the femur mid-shaft” value (ovariectomized rats; [4]) was “equally rescued” and the “maximal load (femur, vertebra)” value (ovariectomized rats; [4]) was “restored to values seen in sham-operated rats”. The “stiffness (femur, vertebra)” value (ovariectomized rats; [4]) was “restored to values seen in sham-operated rats”.
